The AC50 is the concentration giving half of the maximal activity seen. Usually IC50 stands for the concentration needed to halve the response being measured. As usually defined, the CC50 is the concentration that lowers cell viability or growth by half.

The record followed here is ChEMBL document CHEMBL1201862, “PubChem BioAssay data set” (2004).

One experiment relates to HEK293. Nature of the experiment: inhibitors of LMP1-driven NF-kB reporter, dose response, cell-based, HEK293, luciferase, cherry-pick (AID 588343). The following applies: Homo sapiens, HEK293. The experiment is classed as functional, Homo sapiens.
A further experiment deals with Transthyretin (Homo sapiens, UniProt P02766). Nature of the experiment: Luminescence-based cell-based high throughput dose response assay to identify activators of Transthyretin (TTR) transcription. It counts as functional.
The target of experiment [1] is Glutathione-S-transferase (Schistosoma japonicum, UniProt Q26513). Briefly: biotin-GST/anti-GST TR-FRET signal inhibitors, dose response, artefact control for Vif-APOBEC3G degradation inhibitor project, biochemical (AID 1117362). It counts as functional. Background: Time-resolved FRET reads energy transfer from a long-lived donor to a nearby acceptor.
Chain of Glutathione-S-transferase (Q26513 whole entry): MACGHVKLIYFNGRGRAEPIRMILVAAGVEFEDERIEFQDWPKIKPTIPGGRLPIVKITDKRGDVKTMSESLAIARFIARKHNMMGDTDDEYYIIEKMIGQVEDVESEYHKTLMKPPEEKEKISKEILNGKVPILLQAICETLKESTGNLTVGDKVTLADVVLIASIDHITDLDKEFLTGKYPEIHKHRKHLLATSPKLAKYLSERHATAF
For experiment [2], the target named is T1, COUP transcription factor 2 (Homo sapiens, UniProt P24468).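 Also: HEK293 cells transiently cotransfected with COUP-TFII expression vector and reporter; luciferase reporter luminescence driven by COUP-TFII from the pX2-168 reporter plasmid.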
T1 sequence (P24468 whole entry): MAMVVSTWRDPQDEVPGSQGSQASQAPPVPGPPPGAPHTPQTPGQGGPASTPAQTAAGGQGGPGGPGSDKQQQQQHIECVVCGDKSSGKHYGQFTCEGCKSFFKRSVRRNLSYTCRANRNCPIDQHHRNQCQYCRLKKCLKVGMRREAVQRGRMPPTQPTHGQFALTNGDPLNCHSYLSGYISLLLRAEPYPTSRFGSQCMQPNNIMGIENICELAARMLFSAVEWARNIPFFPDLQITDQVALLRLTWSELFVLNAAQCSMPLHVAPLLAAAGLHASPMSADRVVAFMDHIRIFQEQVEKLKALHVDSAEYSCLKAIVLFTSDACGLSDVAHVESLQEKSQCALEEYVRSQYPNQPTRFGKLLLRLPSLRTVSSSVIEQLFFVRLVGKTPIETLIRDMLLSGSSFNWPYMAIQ
Nature of the experiment: Luminescence-based cell-based high throughput dose response assay to identify inhibitors of COUP-TFII (NR2F2). The experiment is classed as functional.

The test system of a further experiment is INS1. Nature of the experiment: beta cell apoptosis inhibitors, cytokine rescue, dose response, luminescence, retest (AID 449756).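 Also: cell death triggered by IL-1 beta plus TNF-alpha plus IFN-gamma mixture; protective hits raise ATP signal compared with cytokine alone wells.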 The experiment is classed as functional, cell-based. The following applies: Rattus norvegicus.
Experiment [3] is described as follows: THP-1 cell cytotoxicity, dose response, cytotoxicity control for Vif-APOBEC3G degradation inhibitor project, THP-1 cells (AID 1117359). It counts as functional. The settings on record: Human immunodeficiency virus 1, THP-1.
Experiment [4] is described as follows: T. cruzi growth inhibition in host cells, dose response, cell-based, plate reader, dry powder, set 2 (AID 652275). It counts as functional.
The nature of experiment [5]: T. cruzi intracellular amastigote growth inhibition, dose response, imaging, CA-I/72 strain, bovine embryo skeletal muscle, dry powder (AID 651885). The experiment is classed as functional, cell-based.
The nature of experiment [6]: growth inhibition of intracellular T. cruzi, dose response, cell-based, plate reader, dry powder samples (AID 651845). It counts as functional.
The target of a further experiment is Paired box protein Pax-8 (Homo sapiens, UniProt Q06710). Briefly: inhibitors of PAX8-driven TPO luciferase reporter, dose response, RMG-I cells, cherry-pick (AID 687027).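 Also: luciferase reporter driven by Pax8 target thyroperoxidase promoter measured by SteadyGlo luminescence.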 The experiment is classed as functional, cell-based. Background: A reporter such as luciferase makes a cellular process visible.
Chain of Paired box protein Pax-8 (Q06710 whole entry): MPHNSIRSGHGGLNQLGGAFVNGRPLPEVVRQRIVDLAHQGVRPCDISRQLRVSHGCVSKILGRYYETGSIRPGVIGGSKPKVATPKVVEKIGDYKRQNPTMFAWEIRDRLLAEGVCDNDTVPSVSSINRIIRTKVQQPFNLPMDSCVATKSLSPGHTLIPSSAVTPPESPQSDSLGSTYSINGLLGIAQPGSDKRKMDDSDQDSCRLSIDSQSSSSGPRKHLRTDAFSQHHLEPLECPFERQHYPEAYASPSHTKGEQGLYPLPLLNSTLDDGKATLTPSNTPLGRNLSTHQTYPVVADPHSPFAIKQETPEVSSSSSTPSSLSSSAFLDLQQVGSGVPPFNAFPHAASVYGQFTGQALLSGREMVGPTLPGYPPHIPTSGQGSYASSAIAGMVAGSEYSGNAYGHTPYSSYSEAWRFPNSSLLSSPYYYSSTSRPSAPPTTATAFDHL
Experiment [7] can be described thus: non-specific cell cytotoxicity, dose response, cytotoxicity control for PAX8 inhibitor project, plate reader, dry powder samples (AID 743021). The experiment is classed as functional, cell-based.
Experiment [8] is described as follows: NIH:OVCAR-3 ovarian cancer cell cytotoxicity, dose response, PAX8 inhibitor project, plate reader, dry powder samples (AID 743044). It counts as functional, cell-based.
Experiment [9] can be described thus: IOSE-T80 ovarian epithelial cell cytotoxicity, dose response, cytotoxicity control for PAX8 inhibitor project, plate reader, dry powder samples (AID 743045). It counts as functional, cell-based.
Experiment [10] can be described thus: cytotoxicity in OVCAR8 ovarian cancer cells, dose response, PAX8 project, cell-based, plate reader, dry powder samples (AID 743197). It counts as functional. The following applies: OVCAR-8.
Experiment [11] in a line: inhibitors of fibronectin matrix deposition, dose response, AH1F cells, Alexa488-FN fluorescence, cherry-picks (AID 1035475). The experiment is classed as functional, cell-based.
The target of experiment [12] is T2, Oxysterols receptor LXR-beta (Homo sapiens, UniProt P55055).
T2 sequence (P55055 whole entry): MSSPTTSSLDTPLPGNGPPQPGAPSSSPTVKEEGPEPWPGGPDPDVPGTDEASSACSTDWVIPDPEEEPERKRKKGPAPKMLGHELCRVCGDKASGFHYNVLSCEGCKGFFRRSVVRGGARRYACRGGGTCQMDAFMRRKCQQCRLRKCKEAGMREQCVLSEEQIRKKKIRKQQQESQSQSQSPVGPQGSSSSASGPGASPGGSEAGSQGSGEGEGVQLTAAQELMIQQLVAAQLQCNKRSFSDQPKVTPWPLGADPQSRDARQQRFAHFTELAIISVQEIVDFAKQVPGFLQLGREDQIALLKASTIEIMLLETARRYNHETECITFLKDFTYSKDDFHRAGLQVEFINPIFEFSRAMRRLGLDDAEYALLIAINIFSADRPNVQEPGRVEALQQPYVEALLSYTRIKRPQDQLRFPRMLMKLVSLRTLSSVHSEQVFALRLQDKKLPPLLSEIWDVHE
Nature of the experiment: LXR agonists, Gal4 luciferase reporter, dose response, counter-screen for ssDAF-12 agonist project, cell-based, luminescence, HEK293, S. stercoralis campaign (AID 720737). The experiment is classed as functional. The settings on record: read-out: IC50 (the source's name).

Experiment [13] is described as follows: Luminescence-based cell-based high throughput dose response assay to identify activators of the DAF-12 from the parasite S. stercoralis (ssDAF-12). It counts as functional.
The nature of experiment [14]: A2780 ovarian cancer cell cytotoxicity, dose response, cytotoxicity control, plate reader, dry powder samples (AID 743046). The experiment is classed as functional, cell-based.

SMILES strings stand for the structures. Active and inactive are the calls of the source.

As for `COc1ccc2cc3c(N)nn(C(=O)c4ccccc4[N+](=O)[O-])c3nc2c1`, the AC50 in the experiment with HEK293 was 2.75 µM (active). Also, at Transthyretin, the EC50 is > 167 µM (inactive).

As to `Cc1cccc2cc(-c3ccccc3)c(-c3ccccc3)c[n+]12`, the values for the IC50 in experiment [1] and in [2] were 18.7 µM (active) and 8.22 µM (active), respectively. In addition, the AC50 in the experiment on INS1 is 4.26 µM (active). Further, in [3], the CC50 is 12.2 µM (active).

As to `C[C@@H]1CN(C)C(=O)c2cccc(NC(=O)c3ccncc3)c2O[C@H]1CN(C)Cc1ccc(Oc2ccccc2)cc1`, the AC50 in [4] is 5.06 nM (active); in [6], 38.1 nM (active). Also, the IC50 in experiment [5] was 10 µM (inconclusive).

For the compound `COc1ccccc1C#Cc1ccc([C@H]2[C@H](C#N)N(C(=O)C3CCC3)[C@H]2CO)cc1`, the AC50 is 5.55 µM (active) on Paired box protein Pax-8; 32.8 µM (active) in experiment [7]; 12.6 µM (active) in experiment [8]; 56.5 µM (active) in experiment [9]; 23.4 µM (active) in [10].

Regarding `C[C@@H]1CN([C@H](C)CO)C(=O)c2cccc(NC(=O)Nc3ccc(C(F)(F)F)cc3)c2O[C@H]1CN(C)C(=O)Nc1cccc2ccccc12`, the AC50 in experiment [11] is 57.7 µM (active).

Regarding `O=C(CCN1C(=O)C2C3CCC(C3)C2C1=O)Nc1ccccc1C(F)(F)F` (stereo unspecified), the EC50 in [12] was > 67.6 µM (inactive). In addition, the IC50 in [13] was > 67.6 µM (inactive).

`Cc1cccc(S(=O)(=O)N2C[C@@H](O)COC[C@@H]3O[C@@H](CC(=O)Nc4ccc(-c5ccccc5)cc4)CC[C@H]32)c1`: the AC50 at Paired box protein Pax-8 is 10.7 µM (active); in experiment [8] it was 43.4 µM (active); in experiment [14], 23.2 µM (active); in experiment [10], 53.1 µM (active).
